The source of these data is US20080318792A1, “Extension of pollination period” (priority 2007, published 2008).

Counter-ions that a name gives are not always drawn.

The test system of this test is Hughes 1883 hybrid corn seed. Nature of the test: Soil germination/emergence of corn seed treated with different forms of ABA in slurry. The note with it: 25 g/cwt as free acid. It is filed as in vivo. As for the experimental part: Three forms of ABA were evaluated in this experiment 1) free acid, 2) ammonium salt, and 3) sodium salt. The cation is referred to as the “counter-ion” below. […] The treatments were made up in 3 ml samples of experimental aqueous seed treatment slurry. All of the seed treatment slurry samples contained CF-Clear film-forming agent and Colorcoat Red (Becker Underwood), each at 1 oz/cwt, and 0.167 oz/cwt Maxim XL fungicide (Syngenta). The slurry application volume was 20 oz/cwt (cwt=100 lbs of seed).
One hundred gram samples of Hughes 1883 hybrid corn seed were treated with the experimental slurries using a Hege 11 seed treater with a six-inch bowl.
The seed was planted in plastic boxes containing 1 kg of typical agricultural silt loam. Fifty seeds were planted 3 cm deep in each plastic box, and the soil in the box was adjusted to 21% soil moisture (wet-weight basis). Two replications of the experiment were incubated under constant light in a 25° C. chamber and two replications incubated under constant light in an 18° C. chamber. The boxes were watered up to the correct weight daily, and checked for emergence. Daily counts of seedlings were continued until emergence ceased. The final count of emerged seedlings was expressed as a percentage of the 50 seeds planted (GERM).
The daily counts were converted to proportions of the final germination of the box, and a Gompertz curve was fitted to the data from each box using SAS Proc NLIN. From the parameters of the model, median germination time (T50) and quartile range (QR) were estimated for each box. Analysis of variance was performed and means calculated for each of the three responses (GERM, T50, QR).

As to `CC1=CC(=O)CC(C)(C)[C@@]1(O)/C=C/C(C)=C\C(=O)O` [ABA ammonium salt], for the setting “soil 18° C.”, the Final emergence was determined as 91%, the QR is listed as 3.52 days and the T50 amounted to 11.2 days. Under “soil 25° C.”, the Final emergence is 91%, the QR came to 1.34 days and the T50 is 7.4 days.
Under “soil 18° C.”, `CC1=CC(=O)CC(C)(C)[C@@]1(O)/C=C/C(C)=C\C(=O)[O-].[Na+]` [ABA sodium salt] had a Final emergence of 92%, a QR of 3.36 days and a T50 of 10.9 days. Further, for the setting “soil 25° C.”, the Final emergence came out at 92%, the QR is listed as 1.31 days and the T50 came to 7.1 days.
